The test system of test [1] is Male Institute of Cancer Research (ICR) mice. As to the kind of experiment: Hot-plate test, blockade of nicotine-induced antinociception. The test is classed as in vivo. To be noted: pretreatment 15 min before nicotine 2.5 mg/kg s.c., tested 5 min after nicotine. From the text: (§1) Animals: Male Institute of Cancer Research (ICR) mice (weighing 20-25 g) obtained from Harlan (Indianapolis, Ind.) were used throughout the study. Animals were housed in an Association for Assessment and Accreditation of Laboratory Animal Care-approved facility, were placed in groups of six, and had free access to food and water. Studies were approved by the Institutional Animal Care and Use Committee of Virginia Commonwealth University.
Hot-Plate Test: Mice were placed into a 10-cm wide glass cylinder on a hot plate (Thermojust Apparatus) maintained at 55° C. for assessment of pain responses mediated at supraspinal levels. To minimize tissue damage, a maximum exposure to the hot plate 40 s was imposed. Measures of control latencies (time until the animal jumped or licked its paws; typically 8-12 s) were done twice for stimuli applied at least 10 min apart for each mouse. Antinociceptive responses after test drug administrations were determined and calculated as the % MPE, where % MPE=[(test latency in s−control latency in s)/(40 s−control latency in s)×100]. Groups of 8 to 12 animals were used for each drug condition. […] The animals were then tested 5 min after administration of a subcutaneous dose of 2.5 mg/kg nicotine.
In general terms: In hot-plate and tail-flick tests a longer latency is read as antinociception.

For test [2] the test system is unchanged. The experiment in a line: Tail-flick test, blockade of nicotine-induced antinociception. Format: in vivo. To be noted: for ED50: Mus musculus, 5 min, read-out: AD50 Tail-flick.
Excerpt: as §1
Tail-Flick Test: Antinociception for pain mediated at the spinal level was assessed by the tail-flick method of D'Amour, F. E.; Smith, D. L., J. Pharmacol. Exp. Ther. 1941, 72, 74-79, incorporated herein by reference in its entirety. In brief, mice were lightly restrained while a radiant heat source was shone onto the upper portion of the tail. To minimize tissue damage, a maximum latency of 10 s was imposed. Latency to remove the tail from the heat source was recorded for each animal. […] Antinociceptive response was calculated as the percentage of maximum possible effect (% MPE), where % MPE=[(test control)/(10 control)]×100.

The target of another test is T1, α3β4*-nAChR (Homo sapiens, UniProt P30926+P32297).
T1 construct: other: EC80-EC90 carbamylcholine; SH-SY5Y; parentheses = S.E.M. as multiplication/division
T1 sequence (P32297 32-505): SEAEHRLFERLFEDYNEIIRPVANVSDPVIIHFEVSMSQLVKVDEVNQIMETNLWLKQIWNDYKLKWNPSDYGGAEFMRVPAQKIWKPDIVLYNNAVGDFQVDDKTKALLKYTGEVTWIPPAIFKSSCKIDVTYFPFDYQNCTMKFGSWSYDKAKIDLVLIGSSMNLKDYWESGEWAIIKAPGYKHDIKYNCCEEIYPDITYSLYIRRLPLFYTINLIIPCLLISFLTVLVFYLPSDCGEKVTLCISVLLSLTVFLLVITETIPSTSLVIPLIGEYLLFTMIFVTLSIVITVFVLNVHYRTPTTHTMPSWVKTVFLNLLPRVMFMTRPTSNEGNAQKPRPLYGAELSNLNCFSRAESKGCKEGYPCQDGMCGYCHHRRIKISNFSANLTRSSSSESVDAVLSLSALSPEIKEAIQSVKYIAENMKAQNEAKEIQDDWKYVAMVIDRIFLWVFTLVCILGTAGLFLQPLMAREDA
T1 sequence (P30926 22-498): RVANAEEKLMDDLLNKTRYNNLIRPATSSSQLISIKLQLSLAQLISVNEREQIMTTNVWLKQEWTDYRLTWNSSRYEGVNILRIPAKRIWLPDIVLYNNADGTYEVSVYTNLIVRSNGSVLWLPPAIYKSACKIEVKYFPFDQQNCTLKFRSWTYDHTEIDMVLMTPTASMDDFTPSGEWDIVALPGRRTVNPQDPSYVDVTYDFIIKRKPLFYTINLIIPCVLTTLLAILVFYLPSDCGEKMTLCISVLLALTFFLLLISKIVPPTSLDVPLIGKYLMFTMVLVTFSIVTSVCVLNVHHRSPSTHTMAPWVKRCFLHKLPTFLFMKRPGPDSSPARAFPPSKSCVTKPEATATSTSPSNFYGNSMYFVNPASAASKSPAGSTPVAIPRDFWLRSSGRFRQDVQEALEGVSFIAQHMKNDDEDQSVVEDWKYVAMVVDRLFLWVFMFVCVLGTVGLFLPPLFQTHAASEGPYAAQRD
As to the kind of experiment: 86Rb+ efflux nAChR functional assay, SH-SY5Y cells. The test is classed as cell-based. To be noted: EC80-EC90 carbamylcholine; SH-SY5Y; parentheses = S.E.M. as multiplication/division factor; read-out: nAChR inhibition IC50 α3β4±. From the text:
(§2) Cell Lines and Culture: Human embryonic kidney (HEK-293) cells stably expressing human DAT, NET or SERT were maintained as previously described in Eshleman, A. J.; Carmolli, M.; Cumbay, M.; Martens, C. R.; Neve, K. A.; Janowsky, A., J. Pharmacol. Exp. Ther. 1999, 289, (2), 877-885. Use was made of several human cell lines that naturally or heterologously express specific, functional, human nAChR subtypes. Cells of the TE671/RD line naturally expresses muscle-type nAChR (a1β1γδ- or α1*-nAChR), and SH-SY5Y neuroblastoma cells naturally expresses autonomic α3β4*-nAChRs (containing α3, β4, probably α5, and sometimes β2 subunits). Different clones of SH-EP1 epithelial cell lines have been engineered to heterologously express either α4β2-nAChR, which are thought to be the most abundant, high affinity nicotine-binding nAChR in mammalian brain, or α4β4-nAChR, another possible brain nAChR subtype (SH-EP1-hα4β2 or α4β4 cells, respectively). These cells were maintained as low passage number (1-26 from our frozen stocks) cultures to ensure stable expression of native or heterologously-expressed nAChR as previously described (see Lukas, R. J.; Fryer, J. D.; Eaton, J. B.; L., G. C., Some methods for studies of nicotinic acetylcholine receptor pharmacology, in Nicotinic receptors and the Nervous System, Levine, E. D., Ed. CRC Press: Boca Raton, 2002; pp 3-27, incorporated herein by reference in its entirety). Cells were passaged once weekly by splitting just-confluent cultures 1/300 (TE671/RD), 1/5 (SH-SY5Y), or 1/20 (transfected SH-EP1) in serum-supplemented medium to maintain log-phase growth.
(§3) After cells had adhered (generally overnight, but no sooner than 4 h later), the medium was removed and replaced with 250 μL per well of complete medium supplemented with ˜350,000 cpm of ^86Rb^+ (PerkinElmer Life and Analytical Sciences, Boston, Mass.) and counted at 40% efficiency using Cerenkov counting (TriCarb 1900 liquid scintillation analyzer[…]; PerkinElmer Life Sciences).
(§4) After at least 4 h and typically overnight, ^86Rb^+ efflux was measured using the “flip-plate” technique. See Lukas, R. J.; Fryer, J. D.; Eaton, J. B.; L., G. C., Some methods for studies of nicotinic acetylcholine receptor pharmacology, in Nicotinic receptors and the Nervous System, Levine, E. D., Ed. CRC Press: Boca Raton, 2002; pp 3-27, incorporated herein by reference in its entirety). Briefly, after aspiration of the bulk of ^86Rb^+ loading medium from each well of the “cell plate,” each well containing cells was rinsed 3× with 2 mL of fresh ^86Rb^+ efflux buffer (130 mM NaCl, 5.4 mM KCl, 2 mM CaCl2, 5 mM glucose, 50 mM HEPES, pH 7.4) to remove extracellular ^86Rb^+. Following removal of residual rinse buffer by aspiration, the flip-plate technique was used again to simultaneously introduce 1.5 mL of fresh efflux buffer containing drugs of choice at indicated final concentrations from a 24-well “efflux/drug plate” into the wells of the cell plate. After a 5 min incubation, the solution was “flipped” back into the efflux/drug plate, and any remaining buffer in the cell plate was removed by aspiration. Cells remaining in the cell plate were lysed and suspended by addition of 1.5 mL of 0.1 M NaOH, 0.1% sodium dodecyl sulfate to each well.
(§5) Similarly, the sum of ^86Rb^+ in cell plates and efflux/drug plates also determined the efficiency of ^86Rb^+ loading (the percentage of applied ^86Rb^+ actually loaded into cells).
(§6) Specific efflux was then taken as the difference in control samples between total and non-specific ^86Rb^+ efflux. Any intrinsic agonist activity of test drugs was ascertained using samples containing test drug only at different concentrations and was normalized, after subtraction of non-specific efflux, to specific efflux in test drug-free, control samples.

In another test the target is T2, α4β2-nAChR (Homo sapiens, UniProt P17787+P43681).
T2 construct: expressed in transfected cells; host or cells: SH-EP1 epithelial cells (SH-EP1-hα4β2)
T2 sequence (P43681 29-627 limits assumed): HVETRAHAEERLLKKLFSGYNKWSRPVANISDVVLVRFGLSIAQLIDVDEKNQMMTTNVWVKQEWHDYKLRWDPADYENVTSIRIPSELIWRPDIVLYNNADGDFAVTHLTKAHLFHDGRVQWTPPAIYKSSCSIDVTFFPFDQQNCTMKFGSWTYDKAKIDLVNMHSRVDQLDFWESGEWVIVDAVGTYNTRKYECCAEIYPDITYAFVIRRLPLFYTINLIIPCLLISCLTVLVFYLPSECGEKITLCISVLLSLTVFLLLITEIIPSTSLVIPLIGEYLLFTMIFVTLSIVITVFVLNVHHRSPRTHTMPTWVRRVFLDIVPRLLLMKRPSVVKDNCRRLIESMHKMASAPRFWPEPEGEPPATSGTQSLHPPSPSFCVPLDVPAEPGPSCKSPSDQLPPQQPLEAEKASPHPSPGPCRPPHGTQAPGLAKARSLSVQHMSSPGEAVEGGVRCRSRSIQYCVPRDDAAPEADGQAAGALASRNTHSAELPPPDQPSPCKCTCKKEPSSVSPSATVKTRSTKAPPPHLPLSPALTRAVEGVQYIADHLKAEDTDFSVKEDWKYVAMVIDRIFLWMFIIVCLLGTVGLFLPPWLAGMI
T2 sequence (P17787 26-502): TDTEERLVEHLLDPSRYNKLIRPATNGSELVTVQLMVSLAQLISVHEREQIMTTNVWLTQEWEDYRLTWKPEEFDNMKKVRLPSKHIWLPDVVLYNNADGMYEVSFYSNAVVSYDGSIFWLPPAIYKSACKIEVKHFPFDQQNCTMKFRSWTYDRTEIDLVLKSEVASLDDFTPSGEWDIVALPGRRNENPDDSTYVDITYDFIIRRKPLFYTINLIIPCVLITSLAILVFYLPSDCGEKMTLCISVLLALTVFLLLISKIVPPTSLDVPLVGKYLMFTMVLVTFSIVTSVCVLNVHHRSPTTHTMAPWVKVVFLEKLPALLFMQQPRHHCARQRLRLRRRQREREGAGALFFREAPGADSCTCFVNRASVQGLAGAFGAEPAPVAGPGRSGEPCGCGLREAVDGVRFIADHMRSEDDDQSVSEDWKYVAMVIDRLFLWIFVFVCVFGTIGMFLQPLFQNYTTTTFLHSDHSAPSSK
The experiment in a line: 86Rb+ efflux nAChR functional assay, SH-EP1-hα4β2 cells. The test is classed as cell-based.
Excerpt: as §2, §3, §4, §5, §6

[3] abbreviates: mice, pretreatment 15 min before nicotine 2.5 mg/kg s.c., tested 5 min after nicotine.
Setting [4] is: EC80-EC90 carbamylcholine, SH-EP1-hα4β2, parentheses = S.E.M. as multiplication/division factor, read-out: nAChR inhibition IC50 α4β2.

Read-outs that look alike come from different tables or passages of the source. Some results are limits rather than exact numbers.

A word on the IC50: it is the concentration needed to halve the response being measured. Turning to `COc1cccc([C@]2(O)OCC(C)(C)N[C@H]2C)c1` [Compound 4f, (2S,3S)-2-(3-Methoxyphenyl)-3,5,5-trimethylmorpholin-2-ol], the “AD50 Hot-plate” value in test [1] is recorded as “IA (IA: AD50 > 15 mg/kg)”. In addition, in test [2] (setting [3]), the ED50 came out at 5.85 mg/kg. The values for the IC50 at α3β4*-nAChR, at α4β2-nAChR and at α4β2-nAChR (setting [4]) were 11 µM, below 10 µM and 10 µM, respectively.

With `C[C@@H]1NC(C)(C)CO[C@@]1(O)c1ccc(F)c(F)c1` [Compound 4m, (2S,3S)-2-(3,4-Difluorophenyl)-3,5,5-trimethylmorpholin-2-ol], the “AD50 Hot-plate” value in test [1] is reported as “IA (IA: AD50 > 15 mg/kg)”. Further, the ED50 in test [2] (setting [3]) was found to be 0.006 mg/kg. The half-maximal inhibitory concentration (IC50) on α3β4*-nAChR came to 11.9 µM; on α4β2-nAChR (setting [4]) it was 12 µM.

Consider `C[C@@H]1NC(C)(C)CO[C@@]1(O)c1ccccc1` [Compound 4b, (2S,3S)-2-Phenyl-3,5,5-trimethylmorpholin-2-ol], for which, in test [1], the “AD50 Hot-plate” value is listed as “IA (IA: AD50 > 15 mg/kg)”. Also, in test [2] (setting [3]), the “AD50 Tail-flick” value is “IA (IA: AD50 > 15 mg/kg)”. Besides, the IC50 on α3β4*-nAChR was 8.9 µM; against α4β2-nAChR, below 10 µM; on α4β2-nAChR (setting [4]) it was 6.4 µM.

In the case of `C[C@@H]1NC(C)(C)CO[C@@]1(O)c1cccc2ccccc12` [Compound 4q, (2S,3S)-2-(Naphthalen-1-yl)-3,5,5-trimethylmorpholin-2-ol], in test [1], the “AD50 Hot-plate” value is given as “IA (IA: AD50 > 15 mg/kg)”. For the same compound, the ED50 in test [2] (setting [3]) is 0.034 mg/kg. In addition, in test [2] (higher activity than (2S,3S)-4a), the “activity in the tail-flick assay relative to (2S,3S)-4a” value is around 5 fold. The values for the half-maximal inhibitory concentration (IC50) at α3β4*-nAChR and at α4β2-nAChR (setting [4]) were 5.2 µM and 9 µM, respectively.

In the case of `C[C@@H]1NC(C)(C)CO[C@@]1(O)c1ccc(F)cc1` [Compound 4h, (2S,3S)-2-(4-Fluorophenyl)-3,5,5-trimethylmorpholin-2-ol], in test [1], the “AD50 Hot-plate” value is “IA (IA: AD50 > 15 mg/kg)”. For the same compound, the ED50 in test [2] (setting [3]) is 0.012 to 0.013 mg/kg. Further, the results for the IC50 at α3β4*-nAChR and at α4β2-nAChR (setting [4]) were 20 µM and 12 µM, respectively.

For the origin of these results see patent US8906908B2, “Hydroxybupropion analogues for treating drug dependence” (priority 2010, dated 2014).
